Source: ChEMBL document CHEMBL1151537 (Bioorg Med Chem Lett, 1994)
Blank lines part the entries; values can stand above or below the compound they belong to.

Tests used:
Melatonin receptor = Melatonin receptor (Gallus gallus, UniProt P49288+P51050+P49285); experiment: Binding affinity towards melatonin receptor using 2-[125I]iodomelatonin as radioligand in chick brain membranes; format: cell membranes, Membrane
Xenopus laevis [1] = species: Xenopus laevis; experiment: Agonistic activity was determined in a pigment aggregation model using cultured melanophores isolated from the neural crest of Xenopus laevis embryos; agonist; format: functional; conditions: frog; filed as agonist
Xenopus laevis [2] = species: Xenopus laevis; experiment: Concentration producing half maximal aggregation of pigment granules in the centre of the melanophore isolated from the neural crest of Xenopus laevis embryos was determined; format: functional, frog
Xenopus laevis [3] = species: Xenopus laevis; experiment: Agonistic activity was determined in a pigment aggregation model using cultured melanophores isolated from the neural crest of Xenopus laevis embryos; partial; format: functional; conditions: frog; filed as partial agonist
Xenopus laevis [4] = species: Xenopus laevis; experiment: Agonistic activity was determined in a pigment aggregation model using cultured melanophores isolated from the neural crest of Xenopus laevis embryos; Partial; format: functional; conditions: frog; filed as partial agonist
Xenopus laevis [5] = species: Xenopus laevis; experiment: Agonistic activity was determined in a pigment aggregation model using cultured melanophores isolated from the neural crest of Xenopus laevis embryoss; agonist; format: functional; conditions: frog; filed as agonist

Ki (Melatonin receptor): 14 nM
Structure (SMILES): O=C(CBr)NCCc1c(Br)[nH]c2ccccc12
Activity (Xenopus laevis [1]): Agonist

Ki (Melatonin receptor): 122 nM
Structure (SMILES): CC(=O)NCCc1c(Br)[nH]c2cc(Br)ccc12
Activity (Xenopus laevis [3]): Partial agonist

Ki (Melatonin receptor): 367 nM
Structure (SMILES): O=C(NCCc1c(Br)[nH]c2cc(Br)ccc12)C(F)(F)F

Ki (Melatonin receptor): 2.3 nM
Structure (SMILES): CCCC(=O)NCCc1c(Br)[nH]c2cc(Br)ccc12
Activity (Xenopus laevis [3]): Partial agonist

Ki (Melatonin receptor): 27 nM
Structure (SMILES): CCC(=O)NCCc1c(Br)[nH]c2cc(Br)ccc12

Ki (Melatonin receptor): 138 nM
Structure (SMILES): O=C(NCCc1c(Br)[nH]c2cc(Br)ccc12)C1CC1
Activity (Xenopus laevis [1]): Agonist

Ki (Melatonin receptor): 138 nM
Structure (SMILES): CC(=O)NCCc1c(Br)[nH]c2ccccc12
Activity (Xenopus laevis [1]): Agonist

Second part, the compound before the results:

Structure (SMILES): CCC(=O)NCCc1c(-c2ccccc2)[nH]c2ccccc12
EC50 (Xenopus laevis [2]): 50 nM
Activity (Xenopus laevis [1]): Agonist

Structure (SMILES): O=C(CBr)NCCc1c[nH]c2ccccc12
Ki (Melatonin receptor): 153 nM

Structure (SMILES): CCCC(=O)NCCc1c[nH]c2ccccc12
Activity (Xenopus laevis [4]): Partial agonist
Ki (Melatonin receptor): 98 nM

Structure (SMILES): O=C(NCCc1c[nH]c2ccccc12)C(F)(F)F
Activity (Xenopus laevis [4]): Partial agonist
Ki (Melatonin receptor): 377 nM

Structure (SMILES): CCCC(=O)NCCc1c(-c2ccccc2)[nH]c2ccccc12
Activity (Xenopus laevis [3]): Partial agonist

Structure (SMILES): CC(=O)NCCc1c[nH]c2ccccc12
Ki (Melatonin receptor): 701 nM

Structure (SMILES): COc1ccc2[nH]cc(CCNC(C)=O)c2c1
Activity (Xenopus laevis [1]): Agonist

Structure (SMILES): O=C(NCCc1c(-c2ccccc2)[nH]c2ccccc12)C(F)(F)F
Activity (Xenopus laevis [3]): Partial agonist

Structure (SMILES): CCC(=O)NCCc1c[nH]c2ccccc12
Ki (Melatonin receptor): 398 nM

Structure (SMILES): CC(=O)NCCc1c(-c2ccccc2)[nH]c2ccccc12
Activity (Xenopus laevis [5]): Agonist
EC50 (Xenopus laevis [2]): 70 nM

Structure (SMILES): O=C(NCCc1c[nH]c2ccccc12)C1CC1
Ki (Melatonin receptor): 2600 nM
